Starred links: 1 amine or outer side, 2 acyl side, 3 side chain; linkers in the order of their positions; H or OH if unused. Positions of bridges follow the written chain, without caps; N, C: chain ends. Non-standard residues stand in square brackets, D forms with d. Residues, ends and D or L forms follow the SMILES beside them. Groups on a side chain read outwards from the residue. *: point of attachment. Ala(piperidin-4-yl) = O=C([C@H](CC1CCN([*:3])CC1)N[*:1])[*:2]; DOTA = O=C(O)CN1CCN(CC(=O)O)CCN(CC(=O)*)CCN(CC(=O)O)CC1; Trp(4-OMe) = COc1cccc2[nH]cc(C[C@H](N)C(=O)O)c12; Trp(5-F) = N[C@@H](Cc1c[nH]c2ccc(F)cc12)C(=O)O; X1 = C[C@@H](c1ccccc1)[C@H](N[*:1])C(=O)[*:2]; X17 = CN1CCC(C[C@H](N[*:1])C(=O)[*:2])CC1; Ala(4-THP) = N[C@@H](CC1CCOCC1)C(=O)O; Val(3-OH) = CC(C)(O)[C@H](N)C(=O)O; Cya = N[C@@H](CS(=O)(=O)O)C(=O)O; PEG4 = NCCOCCOCCOCCOCCC(=O)O; Suc = O=C(CCC(=O)[*:2])[*:1]; Tle = CC(C)(C)[C@H](N)C(=O)O; hLeu = CC(C)CC[C@H](N)C(=O)O
The compounds below were run against T1, human 4lg B7-H3 (Homo sapiens, UniProt Q5ZPR3) (assay: Affinity determination by surface plasmon resonance (SPR) to 4Ig B7-H3). Conditions: SPR KD—37° C., 4Ig B7-H3; 37° C. flow cell temperature.
T1 sequence (Q5ZPR3 29-534): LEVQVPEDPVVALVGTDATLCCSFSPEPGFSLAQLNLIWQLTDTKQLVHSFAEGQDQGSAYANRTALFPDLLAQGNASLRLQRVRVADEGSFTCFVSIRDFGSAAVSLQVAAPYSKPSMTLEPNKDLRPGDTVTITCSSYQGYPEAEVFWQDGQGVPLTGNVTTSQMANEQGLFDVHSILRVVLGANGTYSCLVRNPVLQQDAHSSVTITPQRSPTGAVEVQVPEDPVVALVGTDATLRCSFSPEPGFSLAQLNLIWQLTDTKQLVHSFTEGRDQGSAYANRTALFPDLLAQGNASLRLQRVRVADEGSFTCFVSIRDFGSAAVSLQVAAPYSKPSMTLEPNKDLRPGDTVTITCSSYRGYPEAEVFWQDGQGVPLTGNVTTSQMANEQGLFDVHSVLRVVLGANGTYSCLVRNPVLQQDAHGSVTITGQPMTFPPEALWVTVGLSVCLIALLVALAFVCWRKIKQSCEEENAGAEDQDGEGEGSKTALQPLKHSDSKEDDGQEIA

SMILES	Kd [nM]
CC(=O)N[C@@H](CCC(C)C)C(=O)N[C@@H](Cc1ccc(O)cc1)C(=O)N[C@H]1CSSC[C@@H](C(=O)N[C@@H](Cc2c[nH]c3ccc(F)cc23)C(=O)N[C@H](C(=O)N[C@H](C(=O)N[C@H](CCCCNC(=O)CN2CCN(CC(=O)O)CCN(CC(=O)O)CCN(CC(=O)O)CC2)C(=O)O)C(C)(C)O)[C@@H](C)c2ccccc2)NC(=O)[C@H](Cc2ccc(O)cc2)NC(=O)[C@H](C(C)C)NC(=O)[C@H](CS(=O)(=O)O)NC(=O)[C@H](CC2CCOCC2)NC(=O)[C@H](CC2CCNCC2)NC(=O)CNC(=O)[C@H](C(C)(C)C)NC1=O [compound 524, Ac-hLeu-Y-C-Tbg-G-PipAla-ThpA-CysAcid-V-Y-C-5FW-[(2S, 3S)beta-Me-Phe]-hydroxyVal-dLys(DOTA)-COOH] (Ac-[hLeu]YC[Tle]G[Ala(piperidin-4-yl)][Ala(4-THP)][Cya]VYC[Trp(5-F)][X1][Val(3-OH)][dK](DOTA)-OH; disulfide 3-11)	< 1
CC(=O)N[C@@H](CCC(C)C)C(=O)N[C@@H](Cc1ccc(O)cc1)C(=O)N[C@H]1CSSC[C@@H](C(=O)N[C@@H](Cc2c[nH]c3ccc(F)cc23)C(=O)N[C@H](C(=O)N[C@H](C(=O)N[C@H](C)C(=O)O)C(C)(C)O)[C@@H](C)c2ccccc2)NC(=O)[C@H](Cc2ccc(O)cc2)NC(=O)[C@H](C(C)C)NC(=O)[C@H](CC(=O)O)NC(=O)[C@H](CC2CCN(C(=O)CCOCCOCCOCCOCCNC(=O)CN3CCN(CC(=O)O)CCN(CC(=O)O)CCN(CC(=O)O)CC3)CC2)NC(=O)[C@H](CC2CCN(C)CC2)NC(=O)CNC(=O)[C@H](C(C)(C)C)NC1=O [compound 520, Ac-hLeu-Y-C-Tbg-G-Pip(Me)Ala-Pip(PEG4-DOTA)Ala-D-V-Y-C-5FW-[(2S, 3S)beta-Me-Phe]-hydroxyVal-dAla-COOH] (Ac-[hLeu]YC[Tle]G[X17][Ala(piperidin-4-yl)]([PEG4-DOTA])DVYC[Trp(5-F)][X1][Val(3-OH)][dA]-OH; disulfide 3-11)	< 1
CC(C)CC[C@H](NC(=O)CCC(=O)O)C(=O)N[C@@H](Cc1ccc(O)cc1)C(=O)N[C@H]1CSSC[C@@H](C(=O)N[C@@H](Cc2c[nH]c3ccc(F)cc23)C(=O)N[C@@H](Cc2ccccc2)C(=O)N[C@H](C(=O)N[C@H](CCCCNC(=O)CN2CCN(CC(=O)O)CCN(CC(=O)O)CCN(CC(=O)O)CC2)C(=O)O)C(C)(C)O)NC(=O)[C@H](Cc2ccc(O)cc2)NC(=O)[C@H](C(C)C)NC(=O)[C@H](CC(=O)O)NC(=O)[C@H](CC2CCOCC2)NC(=O)[C@H](CC2CCNCC2)NC(=O)CNC(=O)[C@H](C(C)(C)C)NC1=O [compound 451, C4diacid-hLeu-Y-C-Tbg-G-PipAla-ThpA-D-V-Y-C-5FW-F-hydroxyVal-dLys(DOTA)-COOH] (Suc-[hLeu]YC[Tle]G[Ala(piperidin-4-yl)][Ala(4-THP)]DVYC[Trp(5-F)]F[Val(3-OH)][dK](DOTA)-OH; disulfide 3-11)	1 to 10
CC(=O)N[C@@H](CCC(C)C)C(=O)N[C@@H](Cc1ccc(O)cc1)C(=O)N[C@H]1CSSC[C@@H](C(=O)N[C@@H](Cc2c[nH]c3ccc(F)cc23)C(=O)N[C@@H](Cc2ccccc2)C(=O)N[C@H](C(=O)N[C@H](CO)C(N)=O)C(C)(C)O)NC(=O)[C@H](Cc2ccc(O)cc2)NC(=O)[C@H](C(C)C)NC(=O)[C@H](CC(=O)O)NC(=O)[C@H](CC2CCOCC2)NC(=O)[C@H](CCCCNC(=O)CN2CCN(CC(=O)O)CCN(CC(=O)O)CCN(CC(=O)O)CC2)NC(=O)CNC(=O)[C@H](C(C)(C)C)NC1=O [compound 422, Ac-hLeu-Y-C-Tbg-G-Lys(DOTA)-ThpA-D-V-Y-C-5FW-F-hydroxyVal-dSer-CONH2] (Ac-[hLeu]YC[Tle]GK(DOTA)[Ala(4-THP)]DVYC[Trp(5-F)]F[Val(3-OH)][dS]-NH2; disulfide 3-11)	1 to 10
CC(=O)N[C@@H](CCC(C)C)C(=O)N[C@@H](Cc1ccc(O)cc1)C(=O)N[C@H]1CSSC[C@@H](C(=O)N[C@@H](Cc2c[nH]c3ccc(F)cc23)C(=O)N[C@@H](Cc2ccccc2)C(=O)N[C@H](C(=O)N[C@H](CCC(=O)O)C(N)=O)C(C)(C)O)NC(=O)[C@H](Cc2ccc(O)cc2)NC(=O)[C@H](C(C)C)NC(=O)[C@H](CC(=O)O)NC(=O)[C@H](CC2CCOCC2)NC(=O)[C@H](CCCCNC(=O)CN2CCN(CC(=O)O)CCN(CC(=O)O)CCN(CC(=O)O)CC2)NC(=O)CNC(=O)[C@H](C(C)(C)C)NC1=O [compound 423, Ac-hLeu-Y-C-Tbg-G-Lys(DOTA)-ThpA-D-V-Y-C-5FW-F-hydroxyVal-dGlu-CONH2] (Ac-[hLeu]YC[Tle]GK(DOTA)[Ala(4-THP)]DVYC[Trp(5-F)]F[Val(3-OH)][dE]-NH2; disulfide 3-11)	1 to 10
COc1cccc2[nH]cc(C[C@H](NC(=O)[C@@H]3CSSC[C@H](NC(=O)[C@H](Cc4ccc(O)cc4)NC(=O)[C@H](CCC(C)C)NC(C)=O)C(=O)N[C@@H](C(C)(C)C)C(=O)NCC(=O)N[C@@H](CC4CCNCC4)C(=O)N[C@@H](CC4CCOCC4)C(=O)N[C@@H](CC(=O)O)C(=O)N[C@@H](C(C)C)C(=O)N[C@@H](Cc4ccc(O)cc4)C(=O)N3)C(=O)N[C@@H](Cc3ccccc3)C(=O)N[C@H](C(=O)N[C@H](CCCCNC(=O)CN3CCN(CC(=O)O)CCN(CC(=O)O)CCN(CC(=O)O)CC3)C(=O)O)C(C)(C)O)c12 [compound 493, Ac-hLeu-Y-C-Tbg-G-PipAla-ThpA-D-V-Y-C-4MeOW-F-hydroxyVal-dLys(DOTA)-COOH] (Ac-[hLeu]YC[Tle]G[Ala(piperidin-4-yl)][Ala(4-THP)]DVYC[Trp(4-OMe)]F[Val(3-OH)][dK](DOTA)-OH; disulfide 3-11)	1 to 10

Reference: patent US20250296959A1, “B7-H3 TARGETING PEPTIDES AND CONSTRUCTS THEREOF” (Mariana Oncology Inc., priority 2024, published 2025)
